The source made the active and inactive calls.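 How the source made its calls: active means AC50 no more than ten times the top concentration tested, that is within one log above it; inconclusive means flat curve fit with activity between 30% and 70%, or invalid poor fit; inactive means AC50 beyond ten times the top tested dose.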 Residues, ends and D or L forms follow the SMILES beside them.
Each compound was assayed on S. cerevisiae Mot1-301 ts growth rescue, BacTiter-Glo ATP luminescence (assay: growth rescue of Mot1-301 ts yeast, confirmation, SUMOylation pathway inhibitor project, whole organism, S. cerevisiae, Mot1-301 ts mutant, luminescence, dose retest (AID 463204);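 further: growth at restrictive 38.5 degrees C of Mot1-301 OY566 strain; actives raise luminescence by restoring growth of the ts mutant at high temperature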).
In the case of `O=C(Nc1cnn(Cc2ccc(Cl)cc2)c1)c1ccc([N+](=O)[O-])cc1`, the AC50 is reported as > 42 µM (inactive).
With `Cc1ccc(-c2nn(-c3ccccc3)cc2C(=O)N2CCN(c3ccccn3)CC2)cc1` the AC50 was > 42 µM (inactive).
In the case of `COc1ccccc1CC(=O)N1CCN(S(=O)(=O)c2ccccc2)CC1`, the AC50 is reported as > 42 µM (inactive).
For `O=[N+]([O-])c1cc([N+](=O)[O-])c2cc3ccccc3nc2c1`, the AC50 was 2.63 µM.
In the case of `NC(=O)c1cccc2cc3ccccc3cc12`, the AC50 is reported as > 42 µM (inactive).
`COc1ccc2c(c1)c(CC(=O)OCC(N)=O)c(C)n2C(=O)c1ccc(Cl)cc1` was tested, and the AC50 was > 42 µM (inactive).
For `Nc1cc(=O)[nH]c(=O)n1CCc1ccccc1`, the AC50 was > 42 µM (inactive).
With `CSc1cc(C)c(OCC(=O)Nc2c(C)nn(C)c2C)c(C)c1` the AC50 was > 42 µM (inactive).
With `O=C1c2cccc3c(N4CCCCC4)ccc(c23)C(=O)N1CCO` the AC50 was > 42 µM (inactive).
For `Cc1ccc(C(=O)/C=C/c2ccc(-c3ccccc3[N+](=O)[O-])o2)cc1`, the AC50 was > 42 µM (inactive).
`CC(c1ccccn1)N(CCN(C)C)C(=S)Nc1cccc(F)c1` (configuration not stated) was tested, and the AC50 was > 42 µM (inactive).
With `CCN(CC)/C(=N\S(=O)(=O)c1ccc(F)cc1)c1ccccc1` the AC50 was > 21 µM (inactive).
With `FC(F)(F)c1nc2ccccc2n2c(-c3ccc(Cl)cc3Cl)nnc12` the AC50 was > 42 µM (inactive).
With `COCCn1c(=NC(=O)c2ccc(S(=O)(=O)N3CCOCC3)cc2)sc2cc(S(N)(=O)=O)ccc21` the AC50 was > 42 µM (inactive).
With `NC(=O)NC(=O)CSc1nc(C2CCCCC2)n(-c2ccccc2)n1` the AC50 was > 42 µM (inactive).
In the case of `CN1CCN(C(=O)CCN2C(=O)/C(=C/c3ccccc3Cl)SC2=S)CC1`, the AC50 is reported as > 42 µM (inactive).
In the case of `CCc1ccc(S(=O)(=O)NCc2cccnc2)cc1`, the AC50 is reported as > 42 µM (inactive).
For `CCCCn1c(/N=C/c2ccc3c(c2)OCO3)nc2ccccc21`, the AC50 was > 42 µM (inactive).
`Fc1ccc(-c2cc(C(F)(F)F)nc(NCc3cccs3)n2)cc1` was tested, and the AC50 was > 42 µM (inactive).
In the case of `O=C(COc1ccccc1)Nc1cccc(-c2nnc(-c3ccccc3)o2)c1`, the AC50 is reported as > 42 µM (inactive).
For `CCOP(=O)(OCC)C(NC(=O)c1cccc([N+](=O)[O-])c1)C(Cl)(Cl)Cl` (configuration not stated), the AC50 was > 42 µM (inactive).
For `CCNc1nc(NCC)nc(SCCOC(=O)Nc2ccccc2)n1`, the AC50 was > 42 µM (inactive).
`CC1CCN(Cc2nc3c(c(=O)n(C)c(=O)n3C)n2CCc2ccccc2)CC1` was tested, and the AC50 was > 42 µM (inactive).
`CCn1c(CSCc2ccc(F)cc2)nnc1SCC(=O)NCc1ccccc1` was tested, and the AC50 was > 42 µM (inactive).
With `Cc1cc(C)c2c(=O)[nH]cnc2n1` the AC50 was > 42 µM (inactive).
With `CCOc1ccc(NC(=O)CC2C(=O)N(c3ccccc3)C(=S)N2Cc2ccccn2)cc1` (configuration not stated) the AC50 was > 42 µM (inactive).
In the case of `CC(C)NC(=O)NC(=O)COC(=O)CCCSc1nc2ccccc2s1`, the AC50 is reported as > 42 µM (inactive).
For `COc1ccc(S(=O)(=O)N2CCN(c3ccc(F)cc3)CC2)cc1C(=O)N1CCOCC1`, the AC50 was > 42 µM (inactive).
`CCCOC(=O)C1=C(C)NC2=C(C(=O)CCC2)C1c1cccs1` (configuration not stated) was tested, and the AC50 was > 42 µM (inactive).
For `O=C(OCc1nc2ccsc2c(=O)[nH]1)c1ccco1`, the AC50 was > 42 µM (inactive).
With `S=C(NCCc1c[nH]c2ccccc12)NC1CC1` the AC50 was > 42 µM (inactive).
With `O=C(Cc1cccs1)N1CCCC(c2nc3c(nnn3Cc3ccc(F)cc3)c(=O)[nH]2)C1` (configuration not stated) the AC50 was > 42 µM (inactive).
For `COc1ccc(C(=O)O/N=C(\N)c2ccccc2)cc1OC`, the AC50 was > 42 µM (inactive).
`CC(=O)N(C(C)=O)c1c(C#N)c(C)n(-c2ccccc2)c1C(=O)c1ccccc1` showed an AC50 of 20.4 µM.
With `CC(=O)N1CCCc2cc(S(=O)(=O)Nc3ccc(C)cc3C)ccc21` the AC50 was > 42 µM (inactive).
In the case of `CN(C(=O)COc1cc(=O)n(C)c2ccccc12)c1ccc(Cl)cc1`, the AC50 is reported as > 42 µM (inactive).
For `CC(C)C1=CC(=Nc2ccc(S(N)(=O)=O)cc2)C=C(C(C)C)C1=O`, the AC50 was > 42 µM (inactive).
For `CC1=Nc2ccc(C)cc2N(Cc2ccccc2)C(=O)C1`, the AC50 was > 42 µM (inactive).
For `COc1ccc2nc(SCC(=O)N(C)CC(=O)Nc3ccc(F)cc3)[nH]c2c1`, the AC50 was > 42 µM (inactive).
In the case of `C/C(=C\C(=O)N1CCc2ccccc21)C(=O)O`, the AC50 is reported as > 42 µM (inactive).
With `O=C(OCCCN=C1NS(=O)(=O)c2ccccc21)c1cccs1` the AC50 was > 42 µM (inactive).
In the case of `COc1cc(OC)c(C(=O)N2CCN(c3ccccn3)CC2)cc1OC`, the AC50 is reported as > 42 µM (inactive).
`Cc1ccc(NC(=O)CN(C)C(=O)c2cccc(Br)c2)cc1` was tested, and the AC50 was > 42 µM (inactive).
Work on `Oc1ccc(Br)cc1/C=N/n1c(COc2ccccc2)n[nH]c1=S` yielded an AC50 of 14.2 µM.
For `O=C(c1cc(-c2ccc(Cl)cc2)n(-c2ccc(Cl)cc2)n1)N1CCOCC1`, the AC50 was > 42 µM (inactive).
With `CCOc1cc(C(=S)N2CCOCC2)ccc1OC(=O)c1ccc(C)cc1` the AC50 was > 42 µM (inactive).
For `COc1ccc2c(c1)[C@H]1[C@H](CO2)[C@H](c2ccccc2)[C@]2(C)C(=O)Nc3cc(F)ccc3C(=O)N12`, the AC50 was 7.87 µM.
`CCCCNS(=O)(=O)c1ccc(OC)cc1` was tested, and the AC50 was > 42 µM (inactive).
For `N/C(Cn1cncn1)=N\NC(=O)c1ccc(Cl)cc1Cl`, the AC50 was > 42 µM (inactive).
With `Cc1ccc(C)c(-n2nnnc2SCC(=O)Nc2c(C)n(C)n(-c3ccccc3)c2=O)c1` the AC50 was > 42 µM (inactive).
For `O=C(NCc1ccco1)c1ccc(Br)c(S(=O)(=O)N2CCCCC2)c1`, the AC50 was > 42 µM (inactive).
With `C=CCN1c2ccccc2[C@]23C[C@@H](C(=O)OC)N=C2NC(C(=O)OC)=C(C(=O)OC)[C@H]13` the AC50 was > 42 µM (inactive).
`CCSc1nc2ccccc2c(=O)n1C1CCOC(C)(C)C1` (configuration not stated) was tested, and the AC50 was > 42 µM (inactive).
In the case of `COc1ccc(C(=O)Sc2ccc(Cl)cc2)cc1OC`, the AC50 is reported as > 42 µM (inactive).
In the case of `O=C(CCC(=O)Nc1ccc(F)cc1)N/N=C/c1cccs1`, the AC50 is reported as > 42 µM (inactive).
`Cc1nn(C(C)(C)C)c(OC(=O)c2ccc3c(c2)OCO3)c1S(=O)(=O)c1ccccc1` was tested, and the AC50 was > 42 µM (inactive).
In the case of `COc1cccc(/C=N/NC(=O)CCn2cnc3ccccc32)c1`, the AC50 is reported as > 42 µM (inactive).
In the case of `Cc1sc2nc(CN3CCCC3)nc(NCc3ccncc3)c2c1C`, the AC50 is reported as > 42 µM (inactive).
For `CCN1C(=NCCCCO)N[C@@H](c2cccc(C(F)(F)F)c2)C(C(=O)OC)=C1C`, the AC50 was > 42 µM (inactive).
Compound `C[C@@]12C(=O)Nc3ccc(F)cc3C(=O)N1[C@H]1c3ccccc3OC[C@@H]1[C@@H]2c1ccccc1` has an AC50 of 3.24 µM.
In the case of `Cc1ccc(SCCNC(=O)CN2C(=O)c3ccccc3S2(=O)=O)cc1`, the AC50 is reported as > 42 µM (inactive).
For `O=C(NCc1ccccc1Cl)C(=O)NCC1CCCN1S(=O)(=O)c1cccs1` (configuration not stated), the AC50 was > 42 µM (inactive).
For `CCOC(=O)c1ccc(NC(=S)NCCCN2CCOCC2)cc1`, the AC50 was > 110 µM (inactive).
With `CC(=O)C(C(c1ccccc1)c1c[nH]c2ccccc12)[N+](=O)[O-]` (configuration not stated) the AC50 was 33 µM.
With `CCn1nccc1C(=O)Nc1ccccc1OC` the AC50 was > 42 µM (inactive).
With `COc1c2ccoc2nc2c(OC)c(OC[C@@H](O)C(C)(C)O)ccc12` the AC50 was > 42 µM (inactive).
With `CSc1nsc(SCC(=O)Nc2cccc(C(=O)O)c2)n1` the AC50 was > 42 µM (inactive).
Work on `O=C(c1ccc([N+](=O)[O-])o1)N1CCN(c2nc3c(Cl)cccc3s2)CC1` yielded an AC50 of 6.55 µM.
For `Cc1csc(=O)n1CC(=O)OCC(=O)Nc1cc([N+](=O)[O-])ccc1Cl`, the AC50 was > 42 µM (inactive).
Work on `C=CCSC1=C(C#N)C(c2ccc(C(C)C)cc2)CC(=O)N1` (configuration not stated) yielded an AC50 of 8.36 µM.
In the case of `Cc1nn(C)c(C)c1/C=N/NC(=O)C(C)(C)Oc1ccc(Cl)cc1`, the AC50 is reported as > 42 µM (inactive).
With `COc1ccc(NC(=O)CN(C)C(=O)c2cc(C)on2)cc1` the AC50 was > 42 µM (inactive).
With `CC(=O)Nc1ccc(CN2CCCC(CO)(Cc3cccc(Cl)c3)C2)cc1` (configuration not stated) the AC50 was > 42 µM (inactive).
With `CC12CC3(C)CC(C)(C1)CC(C(=O)NC(=S)N1CCCC1)(C2)C3` the AC50 was > 42 µM (inactive).
With `COc1ccc(NC(=O)c2ccc(-c3csc(C)n3)cc2)cc1` the AC50 was > 42 µM (inactive).
`Cc1ccc(S(=O)(=O)N2c3ccc(S(N)(=O)=O)cc3CC2C)cc1` (configuration not stated) was tested, and the AC50 was > 42 µM (inactive).
In the case of `COc1ccc(NC(=O)CN2C(=O)c3ccccc3S2(=O)=O)cc1OC`, the AC50 is reported as > 42 µM (inactive).
`Cc1ccc(-n2c(SCC(=O)N(C)C3CCS(=O)(=O)C3)nc3ccccc3c2=O)cc1` (configuration not stated) was tested, and the AC50 was > 42 µM (inactive).
For `Cc1ccc(-n2nnnc2SCC#N)cc1`, the AC50 was > 42 µM (inactive).
`Cc1ccc(S(=O)(=O)N2CCOCC2)cc1NC(=O)COC(=O)CNC(=O)c1ccccc1` was tested, and the AC50 was > 42 µM (inactive).
`COC(=O)C1CN(C#N)N(c2ccc(Cl)cc2)C12c1ccccc1-c1ccccc12` (configuration not stated) was tested, and the AC50 was 0.74 µM.
With `O=S(=O)(Cc1ccccc1)N1CCN(c2ncccn2)CC1` the AC50 was > 42 µM (inactive).
`O=C(N/N=C\c1cn(-c2ccccc2)nc1-c1ccccc1)c1ccc(Br)o1` was tested, and the AC50 was > 42 µM (inactive).
For `CC(C)Cc1nc(N2CCOCC2)c(C#N)c2c1CCC2`, the AC50 was > 42 µM (inactive).
For `CN(NC(=O)c1ccccc1F)c1nc(C(F)(F)F)nc2ccccc12`, the AC50 was > 42 µM (inactive).
In the case of `COc1cc(C(=O)Nc2sc3c(c2C(=O)O)CCC(C)C3)cc(OC)c1OC` (configuration not stated), the AC50 is reported as > 42 µM (inactive).
In the case of `CC(C)(C)NC(=O)C1Cc2ccccc2CN1S(=O)(=O)c1ccc(F)cc1` (configuration not stated), the AC50 is reported as > 42 µM (inactive).
In the case of `O=C(N/N=C/c1cccc([N+](=O)[O-])c1)C1COc2ccccc2O1` (configuration not stated), the AC50 is reported as > 42 µM (inactive).
In the case of `COc1ccc2[nH]cc(C(=O)C(=O)N3CCCCC3)c2c1`, the AC50 is reported as > 42 µM (inactive).
For `COc1ccc(C2C(C(C)=O)=C(O)C(=O)N2CCO)c(OC)c1` (configuration not stated), the AC50 was > 42 µM (inactive).
`COc1ccc2c(CC(=O)Nc3ccc(OC)c(NS(=O)(=O)c4ccc(F)cc4)c3)coc2c1` was tested, and the AC50 was > 42 µM (inactive).
With `CC(=O)NC(CC(C)C)C(=O)NC(CO)C(=O)NC(CCC(=O)O)C(=O)NC(C)C(=O)NC(CC(C)C)C(N)=O` (configuration not stated) (Ac-LSEAL-NH2; configuration not given here) the AC50 was > 42 µM (inactive).
`CC(C)(C)Cc1nc(-c2ccccn2)no1` was tested, and the AC50 was > 42 µM (inactive).
With `COCCN(C(=O)c1csnn1)C(C(=O)NC1CCCCC1)c1ccccc1` (configuration not stated) the AC50 was > 42 µM (inactive).
In the case of `CC1(C)Cc2c(c(N3CCCC3)nc3sc4c(N5CCN(CCO)CC5)ncnc4c23)CO1`, the AC50 is reported as > 42 µM (inactive).
For `CCN(CC)c1ccc(Nc2cc3n(c(=O)n2)CCc2cc(OC)c(OC)cc2-3)cc1`, the AC50 was > 42 µM (inactive).
For `Cc1c(O)ccc(C(=O)CN2C(=O)c3ccccc3C2=O)c1O`, the AC50 was > 42 µM (inactive).

Reference: PubChem BioAssay AID463204 (Broad Institute, 2010)
